# Assay results as given in patent publication US12410472B2, “Method for evaluating the eye irritation potential of chemicals” (IMMUNOSEARCH, priority 2016, dated 2025).
# Read-outs that look alike come from different tables or passages of the source. Marks after values point to notes of the source that are not given here.
# Experiments:
# [1] = tested on: reconstructed human corneal epithelium model (SkinEthic™ HCE)
# From the text: The reconstructed human corneal epithelium model, (SkinEthic™ HCE) was purchased from Episkin in Lyon. The model consists of immortalized human corneal epithelial cells grown in a defined medium at the air-liquid interface. The tissue structure obtained is a multi-layer epithelium similar to the natural tissue structure of the human cornea, comprising 5-7 layers with a surface area of 0.5 cm^2.
# Polyhedral cells and wing cells are also present. The tissue also comprises specific ultrastructures such as intermediate filaments, mature hemidesmosomes and desmosomes. […] The tissues are shipped on a semi-solid layer of agarose culture medium. Upon receipt, the tissues are transferred to maintenance medium (1 ml/well) in 6-well plates and incubated in a climatic chamber at 37° C., 5% CO2. The tissues are used 24 hours later.
# Liquid products are tested for solubility in phosphate-buffered saline (PBS) or olive oil. In summary, 100 μl of the test product is mixed with 200 μl of PBS or olive oil.
# The sample is mixed on a vortex mixer. Turbidity and possible phase separation are assessed by eye. The products are tested pure or diluted to 30%. Products that are not soluble in PBS or olive oil cannot be tested at 30%.
# The procedure for applying liquid products to the tissues was optimized as follows: the chemicals are tested at two concentrations, 100% and 30%. In summary, the tissue surface is moistened by adding 20 μl of PBS at 37° C. and incubation for 10 min at 37° C./5% CO2. The corneal epithelia are then treated topically with 50±2 μL of the test product (corresponding to 100 μL/cm2) and incubated for 10 min at room temperature. The tissues are then washed with sterile PBS (2×25 ml) at 37° C. PBS is applied to the edge of the insert (not directly on the tissue) to create a gentle vortex that removes the chemical. The tissues on their inserts are then “embedded” in 5 ml of maintenance medium at room temperature for 30 min in order to remove as much as possible of the product remaining on the tissue surface. The medium is then removed by gently tapping the insert on absorbent paper, and 50 μl of maintenance medium at 37° C. is added. The inserts are then incubated for 6 h at 37° C./5% CO2.
# In summary, corneal tissues are recovered with forceps and placed in tubes for rapid freezing in liquid nitrogen. The RNA is then extracted by the QIAzol technique (Qiagen, Courtaboeuf, France) with an “RNeasy Mini Kit” according to the manufacturer's instructions. In summary, the tissues are placed in 1 ml of QIAzol and homogenized using the TissueLyser II (Qiagen, Courtaboeuf, France) with 2 steel beads. After centrifugation, the supernatant is collected and 0.2 ml of bromochloro propane (Sigma, France) is added, then the whole is vigorously mixed. The homogenate is centrifuged at 12,000 g for 15 min at 4° C. The upper phase (aqueous phase) is added to 600 μl of 70% ethanol and immediately mixed by pipetting. The mixture is transferred to an RNeasy spin column placed on a 2 ml collection tube and the RNA is collected according to the manufacturer's instructions (Qiagen, Courtaboeuf, France).
# In summary, the transcription of total RNA is performed with 1 μg of total RNA in a final volume of 20 μl using “Random Primers” (Invitrogen, France) and “SuperScript III Reverse Transcriptase” (Invitrogen, France) according to the manufacturer's instructions. Quantitative RT-PCR uses a PCR reagent mix: SYBR Green Real-Time PCR Master Mix (ROCHE, France) with 0.4 μM of each nucleotide primer in a final volume of 25 μl. The reaction is performed in an LC480 System (ROCHE, France). The amplification program comprises a cycle at 95° C. for 1 min, followed by 40 cycles with denaturation at 95° C. for 15 s, a hybridization and amplification phase at 60° C. for 15 s, followed by a final elongation phase at 72° C. for 40 s.
# eye = settings: cited from earlier work; for GHS Class: Table 6, list of solid chemicals studied; for eye irritation category as stated in text and figure legends: control chemicals and chemicals of FIG. 1 and FIG. 2; for UN GHS: Table 1, list of liquid products studied
# [2] = liquid products, category from LII at 100% and 30%
# [3] = Table 3, results obtained by the Draize test, liquid products
compound,measurement,setting,value
1-Ethyl-3-methylimidazolium ethylsulfate,EIT prediction,[1]; [2],No Cat*
same,UN-GHS,eye; [3],No Cat
"Oc1cccc2c(O)cccc12 [1,5-Naphthalenediol]",UN-GHS,eye; Draize test classification,Cat 2A
same,GHS Class,eye,Cat 2A
same,eye irritation category as stated in text and figure legends,eye; listed as naphthalene dione,Category 2
"C=CCCCCCCC=C [1,9-Decadiene]",EIT prediction,[1],No Cat
same,UN-GHS,eye; [3],No Cat
OCCCCCCCCCl [1-Chloroctan-8-ol],EIT prediction,[1]; [2],Cat 1
same,UN GHS,eye,Cat 1
same,UN-GHS,eye; [3],Cat 1
O=C(O)Cc1cccc2ccccc12 [1-Naphthalene acetic acid],UN-GHS,eye; Draize test classification,Cat 1
same,GHS Class,eye,Cat 1
"CC(C)(C)CC(C)(C)c1cc(Cc2cc(C(C)(C)CC(C)(C)C)cc(-n3nc4ccccc4n3)c2O)c(O)c(-n2nc3ccccc3n2)c1 [2,2′-Methylene-bis-(6-(2H-benzotriazol-2-yl)-4-(1,1,3,3-tetramethylbutyl)phenol)]",GHS Class,eye,No cat
same,eye irritation category as stated in text and figure legends,eye,No category
"CC(O)CC(C)O (stereo not shown) [2,4-Pentanediol]",EIT prediction,[1],No Cat
same,UN-GHS,eye; [3],No Cat
same,eye irritation category as stated in text and figure legends,eye,No category
"O=C(Cl)c1c(Cl)cccc1Cl [2,6-Dichlorobenzoyl chloride]",EIT prediction,"[1]; human, 10 min",Cat 2
same,UN-GHS,eye; [3],Cat 2A
C=C(C)C(=O)OCCOCC [2-Ethoxyethyl methacrylate],EIT prediction,[1],No Cat
same,UN-GHS,eye; [3],No Cat
CCCC(C)CO (stereo not shown) [2-Methyl-1-pentanol],EIT prediction,"[1]; human, 10 min",Cat 2
same,UN-GHS,eye; [3],Cat 2B
same,eye irritation category as stated in text and figure legends,eye,Category 2
N#CCCCl [3-Chloropropionitrile],EIT prediction,[1]; [2],Cat 2
same,UN-GHS,eye; [3],Cat 2B
"CC(C)=O [Acetone 100%, Acetone]",EIT prediction,[1]; [2],Cat 2
same,UN-GHS,eye; [3],Cat 2A
same,eye irritation category as stated in text and figure legends,eye,category 2
C=CCO [Allyl alcohol],EIT prediction,[1]; [2],Cat 2
same,UN-GHS,eye; [3],Cat 2A
"CC(C)(C)CC(C)(C)c1ccc(OCCOCC[N+](C)(C)Cc2ccccc2)cc1 [Benzethonium chloride 10%, Benzethonium chloride]",EIT prediction,[1]; [2],Cat 1
"N=C(NCCCCCCNC(=N)NC(=N)Nc1ccc(Cl)cc1)NC(=N)Nc1ccc(Cl)cc1.O=C(O)[C@H](O)[C@@H](O)[C@H](O)[C@H](O)CO.O=C(O)[C@H](O)[C@@H](O)[C@H](O)[C@H](O)CO [Chlorhexidine gluconate (20%), Chlorhexidine gluconate]",EIT prediction,[1]; [2],Cat 2
same,UN-GHS,eye; [3],Cat 2A
[H]/N=C(\N/C(=N/[H])NCCCCCCNC(=N)NC(=N)Nc1ccc(Cl)cc1)Nc1ccc(Cl)cc1 [Chlorhexidine],EIT prediction,"[1]; human, 10 min",Cat 1
same,UN GHS,eye,Cat 1
same,UN-GHS,eye; [3],Cat 1
CCN(CC)C(=O)c1cccc(C)c1 [Diethyl toluamide],EIT prediction,"[1]; human, 10 min",Cat 2
same,UN-GHS,eye; [3],Cat 2B
CCN(CC)CCC#N [Diethylaminopropionitrile],EIT prediction,[1]; [2],Cat 1
same,UN GHS,eye,Cat 1
same,UN-GHS,eye; [3],Cat 1
CCCSSCCC [Dipropyl disulfide],EIT prediction,[1],No Cat
same,UN-GHS,eye; [3],No Cat
CCOC(=O)C(C)C(C)=O (stereo not shown) [Ethyl-2-methylacetoacetate],EIT prediction,"[1]; human, 10 min",Cat 2*
same,UN-GHS,eye; [3],Cat 2B
O=C1CCCO1 [Gamma-butyrolactone],EIT prediction,[1]; [2],Cat 2
same,UN-GHS,eye; [3],Cat 2A
OCC(O)CO [Glycerol],EIT prediction,[1],No Cat
same,eye irritation category as stated in text and figure legends,eye,No category
"O=C(O)CO [Glycolic acid (10%), Glycolic acid]",UN-GHS,eye; [3],Cat 2B
"CCCCCCCCCCCCCCCC[N+](C)(C)C.[Br-] [Hexadecyltrimethylammonium bromide 6%, Hexadecyltrimethylammonium bromide]",EIT prediction,"[1]; human, 10 min",Cat 1
same,UN GHS,eye,Cat 1
same,UN-GHS,eye; [3],Cat 1
CC(O)C(=O)O (stereo not shown) [Lactic acid],EIT prediction,"[1]; human, 10 min",Cat 1
same,UN GHS,eye,Cat 1
same,UN-GHS,eye; [3],Cat 1
same,eye irritation category as stated in text and figure legends,eye,category 1
CCC(C)=O [Methyl ethyl ketone],EIT prediction,[1]; [2],Cat 2
same,eye irritation category as stated in text and figure legends,eye,category 2
COC(=O)CS [Methyl thioglycolate],EIT prediction,"[1]; human, 10 min",Cat 1
same,UN GHS,eye,Cat 1
same,UN-GHS,eye; [3],Cat 1
same,eye irritation category as stated in text and figure legends,eye,category 1
"CCCCCCCC[Si](OC)(OC)OC [Octyltrimethoxysilane (SILAN 108), Octyltrimethoxysilane]",EIT prediction,[1],No Cat*
same,UN-GHS,eye; [3],No Cat
CCCOCC(C)O (stereo not shown) [Propasol Solvent P],EIT prediction,[1]; [2],Cat 1
same,UN-GHS,eye; [3],Cat 2A
"[Na+].[OH-] [Sodium hydroxide 0.3%, Sodium hydroxide]",EIT prediction,[1]; [2],Cat 2
same,UN-GHS,eye; [3],Cat 2A
"CCCCCCCCCCCCOS(=O)(=O)[O-].[Na+] [Sodium lauryl sulfate 3%, Sodium lauryl sulfate]",EIT prediction,[1]; [2],No Cat
C=CC(=O)OCCOCCOCCOCCOC(=O)C=C [Tetraethylene glycol diacrylate],EIT prediction,"[1]; human, 10 min",Cat 2
same,UN GHS,eye,Cat 1
same,UN-GHS,eye; [3],Cat 1
CO[Si](CCCNCCN)(OC)OC [[3-(2-Aminoethylamino)propyl]trimethoxysilane],EIT prediction,"[1]; human, 10 min",Cat 1
same,UN GHS,eye,Cat 1
same,UN-GHS,eye; [3],cat 1
CCCCCCC(C=O)=Cc1ccccc1 [alpha hexyl cinnamaldehyde],eye irritation category as stated in text and figure legends,eye,category 2
CC(C)C=O [iso-Butanal],EIT prediction,[1]; [2],Cat 2
same,UN-GHS,eye; [3],Cat 2B
CCCCCCBr [n-Hexyl bromide],EIT prediction,[1]; [2],No Cat*
same,UN-GHS,eye; [3],No Cat
"CCCCCCCCCCCCOS(=O)(=O)[O-].[Na+] [sodium lauryl sulfate (15%), sodium lauryl sulfate]",eye irritation category as stated in text and figure legends,eye,category 1
Benzalkonium chloride [Benzalkonium chloride 5%],EIT prediction,[1]; [2],Cat 1
same,UN GHS,eye,Cat 1
same,UN-GHS,eye; [3],Cat 1
Triton X100 [Triton X100 1%],EIT prediction,[1]; [2],No Cat
same,UN-GHS,eye; [3],No Cat
Triton X100 [Triton X100 5%],EIT prediction,[1]; [2],Cat 2
same,UN-GHS,eye; [3],Cat 2A
Triton X100 [Triton X100 10%],EIT prediction,[1]; [2],Cat 1
same,UN GHS,eye,Cat 1
same,UN-GHS,eye; [3],Cat 1
Triton X-100 [Triton X-100 10%],EIT prediction,[1]; [2],Cat 1
same,UN GHS,eye,Cat 1
same,UN-GHS,eye; [3],Cat 1
benzalkonium chloride [benzalkonium chloride (10%)],eye irritation category as stated in text and figure legends,eye,category 1
